According to patent US20210260055A1, “TOPICAL FORMULATIONS OF DGAT1 INHIBITORS AND THEIR METHODS OF USE” (Dermavant Sciences GmbH, priority 2018, published 2021):
Where two headings read alike, the source gives them in different places.

Tests used:
[1] = tested on: human sebocyte cell line; assay: Nile Red Neutral Lipid Accumulation Assay; assay type: cell-based; settings: day 3 of treatment, with 1 μM T0901317 and 1 μM insulin
Method: This assay examines the ability of compounds to stimulate or inhibit lipid accumulation in human sebocyte cell line. Cells were seeded in tissue culture treated black clear bottom plates. Compounds were added in the presence of Liver X Receptor (LXR) agonist (T0901317) and 1 μM insulin for 3 days and 5 days. For the 5 day treatment fresh compounds were added at Day 3. After the treatment period nile red dye was added and the relative fluorescence determined for both total and neutral lipids. The neutral/total lipid ratio was calculated and obtained values were normalized to both the Cell Titer Blue viability reagent.
Protocol—Day 1: Human immortalized sebocytes were seeded at 10,000 cells/well in 96-well black, clear bottom plates in Sebocyte Growth Medium and allowed to attach overnight at 37° C. […] 3) The relative fluorescence (RFU) of the incorporated stain was determined under 2 parameters: 540ex/620em with no cutoff (Total Lipid), and 485ex/555em with a 515 cutoff (Neutral Lipid) using bottom reads. […] Cell titer blue reagent (100 was then added to each well and the cells were allowed to incubate for 2 hours at 37° C., 5% CO2. 5) The RFU value was determined at 560ex/590em with a 570 cutoff using a top read.
Data Analysis—Cell viability is presented as cell titer blue fluorescence reading (RFU) for each treatment. […] Minimum and maximum values are determined by UNT and LXR+INS controls. […]

[2] = Toxicokinetic assessment of systemic exposure in minipigs following dermal administration; assay type: in vivo; settings: Göttingen, minipig, plasma, topical or ocular; for AUC(0-t): read-out: AUC0-24; for Tmax: Median (Min-Max)
Method: Male and female göttingen minipigs were dosed daily for a period of 28 days in a GLP toxicity study with DMVT-503 gel at 0.1%, 0.3%, and 0.6%. DMVT-503 concentrations were quantitated using a validated LC-MS/MS method and toxicokinetic parameters were calculated for all dosing groups, sexes, and sampling occasions. The systemic exposures observed in this study are supportive of the effective delivery of DMVT-503 into and through minipig skin by the gel formulations tested. Table 10 presents the summary as mean±SD on Days 1 and 28 following daily dermal application of DMVT-503 gel formulations at 0.1%, 0.3%, and 0.6% (2, 6, and 12 mg/kg/day, respectively).

[3] = female, 2 mg/kg/day, Day 1, Female, 2 mg/kg/day, 0.1% gel
[4] = female, 2 mg/kg/day, Day 28, Female, 2 mg/kg/day, 0.1% gel
[5] = female, 6 mg/kg/day, Day 1, Female, 6 mg/kg/day, 0.3% gel
[6] = female, 6 mg/kg/day, Day 28, Female, 6 mg/kg/day, 0.3% gel
[7] = female, 12 mg/kg/day, Day 1, Female, 12 mg/kg/day, 0.6% gel
[8] = female, 12 mg/kg/day, Day 28, Female, 12 mg/kg/day, 0.6% gel
[9] = male, 2 mg/kg/day, Day 1, Male, 2 mg/kg/day, 0.1% gel
[10] = male, 2 mg/kg/day, Day 28, Male, 2 mg/kg/day, 0.1% gel
[11] = male, 6 mg/kg/day, Day 1, Male, 6 mg/kg/day, 0.3% gel
[12] = male, 6 mg/kg/day, Day 28, Male, 6 mg/kg/day, 0.3% gel
[13] = male, 12 mg/kg/day, Day 1, Male, 12 mg/kg/day, 0.6% gel
[14] = male, 12 mg/kg/day, Day 28, Male, 12 mg/kg/day, 0.6% gel

With `Cc1nc(C)c(-c2ccc([C@H]3CC[C@H](CC(=O)O)CC3)cc2)nc1C(N)=O` [DMVT-503, 2-((1R,4R)-4-(4-(6-carbamoyl-3,5-dimethylpyrazin-2-yl)phenyl)cyclohexyl)acetic acid] the IC50 ([1]; Homo sapiens, 72 h) was 25.2 nM, the Cmax [2, 3] was 37.3 ng/mL and the AUC(0-t) [2, 3] was 323 ng·h/mL. For the same molecule, the Cmax [2, 4] was 193 ng/mL, the AUC(0-t) [2, 4] was 3940 ng·h/mL and the Tmax [2, 3] was 24 h. For the same molecule, the Tmax [2, 4] was 1 h, the Cmax [2, 5] was 210 ng/mL and the AUC(0-t) [2, 5] was 1750 ng·h/mL. It also gave a Cmax [2, 6] of 487 ng/mL, an AUC(0-t) [2, 6] of 8660 ng·h/mL and a Tmax [2, 5] of 24 h. The Tmax [2, 6] was 0 h, the Cmax [2, 7] was 171 ng/mL and the AUC(0-t) [2, 7] was 1490 ng·h/mL. It also gave a Cmax [2, 8] of 1370 ng/mL, an AUC(0-t) [2, 8] of 25400 ng·h/mL and a Tmax [2, 7] of 24 h. For the same molecule, the Tmax [2, 8] was 0 h, the Cmax [2, 9] was 35.1 ng/mL and the AUC(0-t) [2, 9] was 307 ng·h/mL. It also gave a Cmax [2, 10] of 19.6 ng/mL, an AUC(0-t) [2, 10] of 3970 ng·h/mL and a Tmax [2, 9] of 24 h. It also gave a Tmax [2, 10] of 0 h, a Cmax [2, 11] of 53 ng/mL and an AUC(0-t) [2, 11] of 478 ng·h/mL. It also gave a Cmax [2, 12] of 940 ng/mL, an AUC(0-t) [2, 12] of 17500 ng·h/mL and a Tmax [2, 11] of 24 h. It also gave a Tmax [2, 12] of 2 h, a Cmax [2, 13] of 103 ng/mL and an AUC(0-t) [2, 13] of 10500 ng·h/mL. It also gave a Cmax [2, 14] of 1160 ng/mL, an AUC(0-t) [2, 14] of 22300 ng·h/mL and a Tmax [2, 13] of 24 h. The Tmax [2, 14] was 1 h.
In the case of `CC1=C(/C=C/C(C)=C/C=C/C(C)=C\C(=O)O)C(C)(C)CCC1` [Mix 13-cis-RA, 13-cis-retinoic Acid, reference compound], the IC50 [1] is reported as 829 nM.
